Patent publication US12728120B2, “Prevention or treatment of brain disease and adverse effects of cholinesterase inhibitors” (DR. NOAH BIOTECH INC., priority 2021, dated 2026)

Experiments:
PI3K-AKT pathway = experiment: pAKT expression in brain (western blot), MCAO-reperfusion model; format: in vivo, Sprague-Dawley rats
Description: (§1) At 21 days after 45-minutes-MCAO-reperfusion modeling, brains were collected to perform a western blot assay. Brains were homogenized in lysate buffer with protease inhibitor cocktail on ice. Each sample was centrifuged at 13,000 rpm and 4° C. for 30 minutes and the supernatant was used for further experiments. Protein concentration was measured using DC (Bio-rad, #5000112) protein assay. Samples were loaded using the SDS-PAGE system (Bio-rad, #1658004 and #1645052) and transferred onto nitrocellulose membranes (Bio-rad, #17001917 and #1704272). The membranes were blocked for 1 hour at room temperature with Tris-buffered saline-Tween20 (TBS-T) containing 5% skim milk and then incubated with pAKT antibody (Cell signaling, #4060), AKT primary antibody (Santacruz, SC-81434), EPO primary antibody (SCBT, SC-5290), ERK (CST, #9102), pERK (CST, #9101) and GAPDH (Bioworld, #MBOO1H) in 5% skim milk overnight at 4° C. Next day, the membranes were washed 3 times in TBS-T for 5 minutes, incubated with horseradish peroxidase-conjugated (HRP-conjugated) secondary antibody or fluorescence conjugated secondary antibody for 1-2 hours, and then washed 3 times in TBS-T for 5 minutes again. After final wash, the membranes were developed for chemiluminescence or fluorescence system. The signals of chemiluminescence or fluorescence were acquired and quantified by using ECL solution (Bio-rad, #1705062), iBright 1500 (Invitrogen, #CL1500), and Odyssey CLx (LI-COR, #CLX-2383) imaging system.

[1] = test system: ReN VM-immortalized cells, human neural progenitor cell line; experiment: HB9 motor neuron marker expression in neural progenitor cells (differentiation); format: cell-based; settings: alone or combined, 3 days
Description: ReN VM-immortalized cells, human neural progenitor cell line, were used (EMD Millipore, SCC008). These neural progenitor cells can differentiate into motor neurons and glial cells. The degree of differentiation of neural progenitor cells into motor neurons was determined by analysing the level of HB9, a specific motor neuron marker. ReN VM cells were cultured on laminin (Corning, 354232)-coated 75T Flask in the growth medium, which is DMEM/F12 (Welgene, #LM002-08) supplemented with 20 ng/ml basic fibroblast growth factor (bFGF; Gibco, 15750-060), 20 ng/ml epidermal growth factor (EGF; Sigma, E9644), serum-free B27 (Gibco, 17504-044), 10 KU heparin (Sigma, H3393), and 1% gentamicin (Gibco, 17504-044). Cells were plated in 96-well plates at 7000 cells/well in the growth media in a 37° C./5% CO2 incubator for 3 days. […] Immunostaining was performed against HB9, a specific motor neuronal marker, to assess the population of motor neurons. Briefly, drug-treated ReN VM cells were fixed in 10% formalin solution for 20 minutes and permeabilized in 0.1% TritonX-100. […] Fluorescence intensity levels were measured using an Odyssey® DLx Infrared Imaging System (LI-COR, CLS-2383). All data were analyzed using the GraphPad Prism 9 software. Statistical significance was assessed using a one-way ANOVA or two-way ANOVA followed by Dunnett's post-hoc analysis unless otherwise noted. […]

ERK pathway = experiment: pERK expression in brain (western blot), MCAO-reperfusion model; format: in vivo, Sprague-Dawley rats
Description: as §1

pCREB = pCREB expression (western blot) in primary cultured neurons; format: cell-based, mice; settings: mouse primary neuro-glia culture, 4 days treatment, β-actin normalized; FIG. 14C
Description: To evaluate the synaptic plasticity, primary neuro-glia culture was prepared from cortices of embryonic day 16 C57/BL6 mice. Cells were collected by mechanical dissection and chemical dissociation with trypsin and DNase treatment and cultured in Neurobasal (NB) and MEM media supplemented with 1% B-27, 2 mM L-glutamine, 5% Fetal Bovine Serum, 5% Horse Serum, 1×MEM-NEAA (non-essential amino acids), and 1% Penicillin-Streptomycin (PS). Cells were cultured in Poly-D-Lysine+Laminin-coated 6-well plates at 2×10^6 cells/well in growth media. After 3 days in vitro (DIV 3), media was changed to NB media supplemented with 2% B-27, 2 mM L-glutamine, and 1% PS. […] Protein was resolved by 8% SDS-PAGE electrophoresis, transferred to polyvinylidene difluoride membranes and blocked with 5% non-fat dry milk for 1 hour at RT. Membrane was immunoblotted using following antibodies; primary antibody: PSD-95 (Abcam, ab18258, 1:2,000), phospho-CREB (Millipore, #06-519, 1:2,000), β-actin (Cell signaling, #3700, 1:3,000), and secondary antibody:HRP-conjugated anti-mouse IgG (AbFrontier, LF-SA8001, 1:5,000), HRP-conjugated anti-rabbit IgG (AbFrontier, LF-SA8002, 1:5,000). Signal was visualized by chemiluminescence methods using ECL solution and imaged using ImageQuant LAS 500 system. […]

[2] = 1 mpk donepezil HCl or 120 mpk NAC used alone, FIG. 17
[3] = brain, 21 days after MCAO, 1 mpk donepezil HCl, 120 mpk NAC, alone or combined

CC(=O)N[C@@H](CS)C(=O)O [NAC, N-acetylcysteine]
activation of the PI3K-AKT pathway (PI3K-AKT pathway; [2]): did not activate
pAKT expression normalized to VEH (100%) (PI3K-AKT pathway; [3]): 55.88%
pAKT expression, mean value (PI3K-AKT pathway; brain, 21 days after MCAO, 1 mpk donepezil HCl, 120 mpk NAC, alone or combined, FIG. 17A): 44.23
HB9 expression level, mean value relative to CTL (100%) ([1]; donepezil 0.1 μM, NAC 12 μM, FIG. 9A): 116.9%
HB9 expression level, mean value relative to CTL (100%) ([1]; donepezil 1 μM, NAC 120 μM, FIG. 9B): 125.36%
activation of the ERK pathway (ERK pathway; [2]): did not activate
pERK expression normalized to VEH (100%) (ERK pathway; [3]): 189.77%
pERK expression, mean value (ERK pathway; brain, 21 days after MCAO, 1 mpk donepezil HCl, 120 mpk NAC, alone or combined, FIG. 17B): 99.50
pCREB expression, mean value normalized to untreated control (CTL 1.0) (pCREB): 1.13
